The values below come from patent US8030315B2, “DPP-IV inhibitor including beta-amino group, preparation method thereof and pharmaceutical composition containing the same for preventing and treating diabetes or obesity” (Dong-A Pharm. Co., Ltd., priority 2007, dated 2011).

The nature of data set [1]: In vivo kinetic experiments (half-life). Particulars: SD, rat, blood, po, 10 mg/kg.
For a further data set, the system named is C57BL/6 mice. As to the kind of experiment: Oral glucose tolerance test (OGTT). Format: in vivo. Particulars: dose of 1 mg/kg, compared to the control group. Here is the method:
Blood was collected from caudal veins of animals in the morning on the day of the experiment and a blood glucose level was measured with an Accu-Chek Active Blood Glucose Meter (Roche Diagnostics). […] Blood collection was made at designated time points—just prior to drug administration, just prior to glucose administration, and 5, 15, 30, 60 and 90 min after glucose administration.

As for `CCOC[C@@H]1C(=O)NCCN1C(=O)C[C@H](N)Cc1cc(F)c(F)cc1F.Cl` [Example 3, (R)-4-[(R)-3-amino-4-(2,4,5-trifluorophenyl)butanoyl]-3-(ethoxymethyl)piperazin-2-one hydrochloride], the half-life in data set [1] was 7.6 h. For the same molecule, the blood glucose-lowering effects in the data set with C57BL/6 mice was 52%. The like results for `CC(C)(C)OC[C@@H]1C(=O)NCCN1C(=O)C[C@H](N)Cc1cc(F)c(F)cc1F.O=C(O)C(O)C(O)C(=O)O` [Example 12, (R)-4-[(R)-3-amino-4-(2,4,5-trifluorophenyl)butanoyl]-3-(t-butoxymethyl)piperazin-2-one tartrate] were, in that order, 5.5 h and 62%. The corresponding values for `CC(C)(C)OC[C@@H]1C(=O)NCCN1C(=O)C[C@H](N)Cc1cc(F)c(F)cc1F.Cl` [Example 1, (R)-4-[(R)-3-amino-4-(2,4,5-trifluorophenyl)butanoyl]-3-(t-butoxymethyl)piperazin-2-one hydrochloride] are 7.9 h and 54%.

`N[C@@H](CC(=O)N1CCn2c(nnc2C(F)(F)F)C1)Cc1cc(F)c(F)cc1F` [MK-0431, reference compound] had a half-life in data set [1] of 4.8 h.

As a reminder, the half-life is the time needed for the level to fall by half in the phase considered. A low value points to fast loss.
